PMC5957549 (Nature, 2017)

Columns and labels:
AdenosineA2A = AdenosineA2A (Homo sapiens, UniProt P29274); experiment: Radioligand displacement; type: binding; conditions: read-out: Inhib. (%)
Adenosine A1 = Adenosine A1 (Homo sapiens, UniProt P30542); experiment: Radioligand displacement; type: binding; conditions: read-out: Inhib. (%)
Adrenergic α2A = Adrenergic α2A (Homo sapiens, UniProt P08913); experiment: Radioligand displacement; type: binding; conditions: read-out: Inhib. (%)
Adrenergic α1A = experiment: Radioligand displacement; type: binding; conditions: 10 μM fenethylline, average of two replicates
Adrenergic α1B = experiment: Radioligand displacement; type: binding; conditions: 10 μM fenethylline, average of two replicates
Adrenergic β2 = Adrenergic β2 (Homo sapiens, UniProt P07550); experiment: Radioligand displacement; type: binding; conditions: read-out: Inhib. (%)
Adrenergic β1 = Adrenergic β1 (Homo sapiens, UniProt P08588); experiment: Radioligand displacement; type: binding; conditions: read-out: Inhib. (%)
Sequence of Adrenergic β1 (P08588 whole entry): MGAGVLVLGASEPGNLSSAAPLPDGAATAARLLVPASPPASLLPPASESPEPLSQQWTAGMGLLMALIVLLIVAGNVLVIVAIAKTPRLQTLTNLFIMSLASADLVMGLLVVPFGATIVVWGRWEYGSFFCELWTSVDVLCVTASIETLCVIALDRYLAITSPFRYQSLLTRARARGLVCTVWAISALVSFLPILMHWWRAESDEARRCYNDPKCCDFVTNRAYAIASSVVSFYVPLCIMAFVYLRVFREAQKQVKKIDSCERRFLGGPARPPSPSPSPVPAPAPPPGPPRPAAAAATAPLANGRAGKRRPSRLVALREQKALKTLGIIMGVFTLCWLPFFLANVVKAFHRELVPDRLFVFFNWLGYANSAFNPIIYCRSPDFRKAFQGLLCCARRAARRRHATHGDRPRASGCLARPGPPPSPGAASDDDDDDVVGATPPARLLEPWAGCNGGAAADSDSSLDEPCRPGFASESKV

L-Type Ca Channel = experiment: Radioligand displacement; type: binding; conditions: 10 μM fenethylline, average of two replicates
Cannabinoid CB1 = Cannabinoid CB1 (Homo sapiens, UniProt P21554); experiment: Radioligand displacement; type: binding; conditions: read-out: Inhib. (%)
Dopamine D2S = Dopamine D2S (Homo sapiens, UniProt P14416); experiment: Radioligand displacement; type: binding; conditions: read-out: Inhib. (%)
GABAA – Site 1 = experiment: Radioligand displacement; type: binding; conditions: 10 μM fenethylline, average of two replicates
GABAA – Site 2 = experiment: Radioligand displacement; type: binding; conditions: 10 μM fenethylline, average of two replicates
Glutamate – NMDA = experiment: Radioligand displacement; type: binding; conditions: 10 μM fenethylline, average of two replicates
Muscarinic M2 = Muscarinic M2 (Homo sapiens, UniProt P08172); experiment: Radioligand displacement; type: binding; conditions: read-out: Inhib. (%)
Sequence of Muscarinic M2 (P08172 whole entry): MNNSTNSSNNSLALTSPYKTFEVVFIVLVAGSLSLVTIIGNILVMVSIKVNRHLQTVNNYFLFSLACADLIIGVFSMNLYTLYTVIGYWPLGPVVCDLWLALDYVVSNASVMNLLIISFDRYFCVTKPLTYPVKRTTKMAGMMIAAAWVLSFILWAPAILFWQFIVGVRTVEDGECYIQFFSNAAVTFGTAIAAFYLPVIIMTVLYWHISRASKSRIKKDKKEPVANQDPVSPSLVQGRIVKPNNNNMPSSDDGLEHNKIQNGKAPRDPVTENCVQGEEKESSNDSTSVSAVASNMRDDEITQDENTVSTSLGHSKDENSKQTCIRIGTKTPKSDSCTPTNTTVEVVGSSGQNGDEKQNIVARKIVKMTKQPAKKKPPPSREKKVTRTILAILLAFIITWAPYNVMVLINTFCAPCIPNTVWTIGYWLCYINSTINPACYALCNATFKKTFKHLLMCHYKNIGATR

Muscarinic M3 = Muscarinic M3 (Homo sapiens, UniProt P20309); experiment: Radioligand displacement; type: binding; conditions: read-out: Inhib. (%)
Sequence of Muscarinic M3 (P20309 whole entry): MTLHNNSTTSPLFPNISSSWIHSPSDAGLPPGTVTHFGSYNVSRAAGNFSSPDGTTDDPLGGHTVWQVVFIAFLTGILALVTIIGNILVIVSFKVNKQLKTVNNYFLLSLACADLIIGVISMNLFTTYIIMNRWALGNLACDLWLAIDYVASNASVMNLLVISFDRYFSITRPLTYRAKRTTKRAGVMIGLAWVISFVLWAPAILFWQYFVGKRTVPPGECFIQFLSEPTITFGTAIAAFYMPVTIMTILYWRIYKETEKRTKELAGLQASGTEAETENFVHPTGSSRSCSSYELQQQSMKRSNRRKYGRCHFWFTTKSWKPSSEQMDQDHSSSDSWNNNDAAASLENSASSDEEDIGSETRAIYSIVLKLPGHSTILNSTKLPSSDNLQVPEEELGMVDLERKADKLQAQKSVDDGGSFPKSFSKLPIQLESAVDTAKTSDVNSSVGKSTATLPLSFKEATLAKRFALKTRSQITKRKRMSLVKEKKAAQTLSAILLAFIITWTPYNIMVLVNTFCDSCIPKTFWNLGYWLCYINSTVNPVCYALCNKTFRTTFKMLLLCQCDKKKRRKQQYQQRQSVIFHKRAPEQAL

Nicotinic Ach = experiment: Radioligand displacement; type: binding; conditions: 10 μM fenethylline, average of two replicates
Nicotinic Ach α1 = Nicotinic Ach α1 (Homo sapiens, UniProt P02708+P07510+Q07001); experiment: Radioligand displacement; type: binding; conditions: read-out: Inhib. (%)
Sequence of Nicotinic Ach α1 (P02708 21-457): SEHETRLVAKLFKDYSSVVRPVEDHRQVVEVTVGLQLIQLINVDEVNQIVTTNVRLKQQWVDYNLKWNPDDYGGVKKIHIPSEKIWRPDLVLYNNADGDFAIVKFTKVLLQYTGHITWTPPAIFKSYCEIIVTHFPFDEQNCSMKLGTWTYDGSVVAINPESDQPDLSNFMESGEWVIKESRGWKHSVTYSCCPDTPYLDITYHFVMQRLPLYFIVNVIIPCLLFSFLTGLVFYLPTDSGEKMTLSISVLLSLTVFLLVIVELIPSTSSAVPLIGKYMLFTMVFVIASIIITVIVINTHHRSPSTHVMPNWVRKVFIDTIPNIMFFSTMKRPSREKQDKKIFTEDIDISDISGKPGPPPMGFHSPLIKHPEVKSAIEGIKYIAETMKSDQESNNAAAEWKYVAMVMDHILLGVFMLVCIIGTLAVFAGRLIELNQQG
Sequence of Nicotinic Ach α1 (P11230 24-501 partner): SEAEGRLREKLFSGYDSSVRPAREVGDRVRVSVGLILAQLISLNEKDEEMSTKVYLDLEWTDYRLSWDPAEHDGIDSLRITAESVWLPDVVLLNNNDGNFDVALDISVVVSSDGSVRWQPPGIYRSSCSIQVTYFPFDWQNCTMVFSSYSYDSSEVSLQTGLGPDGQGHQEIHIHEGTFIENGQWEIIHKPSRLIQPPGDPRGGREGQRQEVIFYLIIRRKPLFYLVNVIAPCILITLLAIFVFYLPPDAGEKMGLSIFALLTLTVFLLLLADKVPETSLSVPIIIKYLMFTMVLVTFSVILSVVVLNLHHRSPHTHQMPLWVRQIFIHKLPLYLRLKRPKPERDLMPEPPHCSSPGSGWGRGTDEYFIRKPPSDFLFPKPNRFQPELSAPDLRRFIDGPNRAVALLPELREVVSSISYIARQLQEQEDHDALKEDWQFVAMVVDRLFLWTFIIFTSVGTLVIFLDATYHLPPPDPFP
Sequence of Nicotinic Ach α1 (Q07001 22-517): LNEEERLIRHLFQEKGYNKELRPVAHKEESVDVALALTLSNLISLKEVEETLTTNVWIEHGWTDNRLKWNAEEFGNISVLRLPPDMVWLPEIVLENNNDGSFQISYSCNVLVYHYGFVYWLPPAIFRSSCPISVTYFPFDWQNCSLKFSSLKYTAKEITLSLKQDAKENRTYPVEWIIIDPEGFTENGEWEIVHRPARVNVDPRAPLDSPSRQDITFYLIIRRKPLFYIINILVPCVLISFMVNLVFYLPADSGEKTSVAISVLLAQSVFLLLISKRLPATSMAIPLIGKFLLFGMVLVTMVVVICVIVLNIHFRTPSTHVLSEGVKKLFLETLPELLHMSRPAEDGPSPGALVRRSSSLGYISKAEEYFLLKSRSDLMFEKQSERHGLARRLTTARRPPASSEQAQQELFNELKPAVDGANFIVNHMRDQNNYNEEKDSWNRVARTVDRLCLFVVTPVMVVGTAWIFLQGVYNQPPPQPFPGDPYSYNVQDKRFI
Sequence of Nicotinic Ach α1 (P07510 23-517): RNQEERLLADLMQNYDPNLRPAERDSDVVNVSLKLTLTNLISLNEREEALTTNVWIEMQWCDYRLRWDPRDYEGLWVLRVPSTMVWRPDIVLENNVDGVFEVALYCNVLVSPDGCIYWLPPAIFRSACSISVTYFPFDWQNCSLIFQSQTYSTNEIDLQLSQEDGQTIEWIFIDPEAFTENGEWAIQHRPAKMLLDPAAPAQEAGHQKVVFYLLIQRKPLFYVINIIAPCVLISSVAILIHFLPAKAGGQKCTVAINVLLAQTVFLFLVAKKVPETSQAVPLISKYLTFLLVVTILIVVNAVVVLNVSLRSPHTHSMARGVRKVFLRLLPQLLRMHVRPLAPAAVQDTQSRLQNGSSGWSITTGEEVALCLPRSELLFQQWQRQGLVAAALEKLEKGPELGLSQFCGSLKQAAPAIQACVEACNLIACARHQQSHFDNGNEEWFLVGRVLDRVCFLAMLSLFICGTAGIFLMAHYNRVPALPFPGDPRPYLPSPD

Phorbol Ester = experiment: Radioligand displacement; type: binding; conditions: 10 μM fenethylline, average of two replicates
Prostanoid EP4 = Prostanoid EP4 (Homo sapiens, UniProt P35408); experiment: Radioligand displacement; type: binding; conditions: read-out: Inhib. (%)
Sequence of Prostanoid EP4 (P35408 whole entry): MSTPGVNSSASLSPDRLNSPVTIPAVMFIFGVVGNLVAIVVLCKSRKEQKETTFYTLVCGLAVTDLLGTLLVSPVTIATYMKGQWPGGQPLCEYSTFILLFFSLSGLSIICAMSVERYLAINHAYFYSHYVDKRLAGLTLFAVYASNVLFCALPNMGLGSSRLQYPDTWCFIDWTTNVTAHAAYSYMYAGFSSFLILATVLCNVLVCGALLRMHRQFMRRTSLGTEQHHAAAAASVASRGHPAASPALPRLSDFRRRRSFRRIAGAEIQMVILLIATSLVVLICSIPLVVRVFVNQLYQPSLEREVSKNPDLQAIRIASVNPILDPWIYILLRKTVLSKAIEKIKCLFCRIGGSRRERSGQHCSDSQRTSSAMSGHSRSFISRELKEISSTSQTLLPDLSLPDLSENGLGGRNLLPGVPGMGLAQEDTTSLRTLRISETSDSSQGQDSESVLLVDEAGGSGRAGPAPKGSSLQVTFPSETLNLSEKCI

Rolipram = experiment: Radioligand displacement; type: binding; conditions: 10 μM fenethylline, average of two replicates
Sigma σ1 = Sigma σ1 (Homo sapiens, UniProt Q99720); experiment: Radioligand displacement; type: binding; conditions: read-out: Inhib. (%)
Sequence of Sigma σ1 (Q99720 whole entry): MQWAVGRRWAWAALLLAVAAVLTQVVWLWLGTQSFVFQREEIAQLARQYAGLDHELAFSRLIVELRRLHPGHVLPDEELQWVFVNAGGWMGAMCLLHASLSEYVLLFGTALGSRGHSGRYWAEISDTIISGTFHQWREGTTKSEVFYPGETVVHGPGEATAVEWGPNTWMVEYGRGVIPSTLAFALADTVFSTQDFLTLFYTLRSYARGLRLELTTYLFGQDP

Norepi. Transporter = Norepi. Transporter (Homo sapiens, UniProt P23975); experiment: Radioligand displacement; type: binding; conditions: read-out: Inhib. (%)
[1] = type: in vivo, Swiss Webster mice; conditions: fenethylline 50 mg/kg vs amphetamine 5 mg/kg
Swiss Webster mice [2] = experiment: Open field hyperlocomotor activity assay; type: in vivo
Swiss Webster mice [3] = experiment: Elevated plus maze; type: in vivo; conditions: EPM; fenethylline 20 mg/kg
Swiss Webster mice [4] = experiment: Conditioned place preference; type: in vivo; conditions: training with fenethylline 20 mg/kg
suite of 31 CNS targets = experiment: Binding across a suite of 31 CNS targets; conditions: 10 μM

Sequence of Adenosine A1 (P30542 whole entry): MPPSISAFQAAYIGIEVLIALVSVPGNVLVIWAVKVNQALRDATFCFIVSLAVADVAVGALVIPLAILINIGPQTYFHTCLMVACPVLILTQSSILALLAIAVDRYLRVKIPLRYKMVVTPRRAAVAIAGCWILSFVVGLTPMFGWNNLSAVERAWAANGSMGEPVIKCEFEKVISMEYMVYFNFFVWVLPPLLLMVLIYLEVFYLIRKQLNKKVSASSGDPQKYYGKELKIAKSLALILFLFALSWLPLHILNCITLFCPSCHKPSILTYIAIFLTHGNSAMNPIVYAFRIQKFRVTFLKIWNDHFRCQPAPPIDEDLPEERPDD
Sequence of Adrenergic α2A (P08913 whole entry): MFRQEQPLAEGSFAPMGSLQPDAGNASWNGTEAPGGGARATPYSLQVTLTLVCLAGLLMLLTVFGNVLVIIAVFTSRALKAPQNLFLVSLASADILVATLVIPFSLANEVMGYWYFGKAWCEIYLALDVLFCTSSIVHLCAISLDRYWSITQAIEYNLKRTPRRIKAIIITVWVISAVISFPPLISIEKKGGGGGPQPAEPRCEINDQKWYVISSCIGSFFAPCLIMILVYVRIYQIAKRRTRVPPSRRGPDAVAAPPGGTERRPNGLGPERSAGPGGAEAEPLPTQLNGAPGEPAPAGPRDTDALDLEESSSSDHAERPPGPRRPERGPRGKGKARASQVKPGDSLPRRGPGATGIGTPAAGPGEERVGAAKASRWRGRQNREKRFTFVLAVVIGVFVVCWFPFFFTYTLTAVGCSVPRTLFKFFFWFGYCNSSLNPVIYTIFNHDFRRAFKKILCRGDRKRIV

CC(Cc1ccccc1)NCCn1cnc2c1c(=O)n(C)c(=O)n2C (stereo not shown) [fenethylline, Fenethylline]
inhibition at 10 µM (AdenosineA2A): -5%
inhibition at 10 µM (Adenosine A1): 0%
inhibition at 10 µM (Adrenergic α2A): 16%
Inhib. (%) (Adrenergic α1A): 27%
Inhib. (%) (Adrenergic α1B): 16%
inhibition at 10 µM (Adrenergic β2): 3%
inhibition at 10 µM (Adrenergic β1): 9%
Inhib. (%) (L-Type Ca Channel): 6%
inhibition at 10 µM (Cannabinoid CB1): 16%
inhibition at 10 µM (Dopamine D2S): 1%
Inhib. (%) (GABAA – Site 1): 0%
Inhib. (%) (GABAA – Site 2): 5%
Inhib. (%) (Glutamate – NMDA): 10%
inhibition at 10 µM (Muscarinic M2): -6%
inhibition at 10 µM (Muscarinic M3): 2%
Inhib. (%) (Nicotinic Ach): 2%
inhibition at 10 µM (Nicotinic Ach α1): 9%
Inhib. (%) (Phorbol Ester): 9%
inhibition at 10 µM (Prostanoid EP4): 3%
Inhib. (%) (Rolipram): 9%
inhibition at 10 µM (Sigma σ1): 7%
inhibition at 10 µM (Norepi. Transporter): 10%
penetration of liberated amphetamine into brain tissue [1]: lags behind that of directly administered amphetamine
onset of stimulant (hyperlocomotor) activity (Swiss Webster mice [2]; fenethylline 20 mg/kg vs amphetamine 2 mg/kg): more rapid than that of amphetamine alone
locomotor activity after drug in control animals (Swiss Webster mice [2]; open field, control (KLH) animals): clear dose-dependent increase
time spent in open arms after drug in control animals (Swiss Webster mice [3]): reduced the time
induction of conditioned place preference (Swiss Webster mice [4]): induce CPP
binding across a suite of 31 CNS targets (suite of 31 CNS targets): little binding
